# Marks after values point to notes of the source that are not given here.
# Tests used:
# Format in all cases: in vivo, human
# [1] = test system: Chronic Hepatitis B (HBV); assay: Clinical study of YGK and lamivudine in chronic hepatitis B patients: serum biological markers (Example 6)
# Experimental: Patients were randomized and divided into group A, B and C. Group A was the treatment group with 48 patients while group B with 42 patients and group C with 45 patients were positive control groups.
# (§1) (2) Treatment Method • Each treatment period lasted for 4 weeks.
# (§2) (1) Observe Items • (a) Hepatitis B biological markers: Serum HBV-DNA, HBeAg, Anti-Hbe, HbsAg, Anti-HBs were analyzed before treatment, at week 4, 8, 16 and 32 during treatment and at week 24 and 48 after treatment termination. • Serum HBV-DNA was measured by polymerase chain reaction (PCR) using 9600 DNA Amplification Machine (PE corp., USA) and reagents from E-li-kang Biotech. Corp., Zhejiang, Wenzhou, China. Serum HBeAg, anti-HBe, HBsAg, and Anti-HBs were determined by the Imx method using Automatic Quick Micro Immune Analytic Instrument and reagents from Abbott Laboratories, USA. • (b) Hepatic functions: ALT was monitored at week 4, 8, 16 and 32 during treatment and at week 24 and 48 after treatment termination. • (c) Adverse effects: Patients were constantly monitored by the medical staff for adverse effect throughout the treatment periods.
# Data obtained at weeks 4, 8, 16, and 32 during treatment and at weeks 24 and 48 after treatment termination were analyzed by Chi-square (X^2) and t-test. The statistical results obtained were used to evaluate the therapeutic effects.
# [2] = Clinical study of YGK and lamivudine in chronic hepatitis B patients: adverse effects; conditions: after 16 weeks of treatment, of 42 patients; disappeared after 2 more weeks
# Experimental: (§3) A total of 135 patients who met the criteria were included in this study. Patients were randomized and divided into group A, B and C. Group A was the treatment group with 48 patients while group B with 42 patients and group C with 45 patients were positive control groups.
# as §1, §2
# ALT = assay: Clinical study of YGK and lamivudine in chronic hepatitis B patients: hepatic function (ALT)
# Experimental: as §3, §1, §2
# Data obtained at weeks 4, 8, 16, and 32 during treatment and at weeks 24 and 48 after treatment termination were analyzed by Chi-square (X^2) and t-test. […]
# [3] = number of patients after 4 weeks of treatment
# [4] = number of patients after 8 weeks of treatment
# [5] = number of patients after 16 weeks of treatment
# [6] = number of patients after 32 weeks of treatment
# [7] = number of patients at week 24 after treatment termination
# [8] = number of patients at week 48 after treatment termination
compound,measurement,setting,value
"Nc1ccn([C@@H]2CS[C@H](CO)O2)c(=O)n1 [lamivudine, (2R, cis)-4-amino-1-(2-hydroxmethyl-1,3-oxathiolan-5-yl)-(1H)-pyrimidin-2-one]",HBeAg seroconversion,[1]; after 16 weeks of treatment,4.8%
same,patients with negative HBV DNA,[1]; after 16 weeks of treatment,61.9%
same,HBV DNA negative conversion,[1]; after 32 weeks of treatment,90.5%
same,HBeAg seroconversion,[1]; after 32 weeks of treatment,9.5%
same,rate for patients turning negative in HBeAg,[1]; after lamivudine treatment,9.5%
same,Seroconversion of HBeAg,[1]; [3],0**
same,Seroconversion of HBsAg,[1]; [3],0
same,Seroconversion of anti-Hbe,[1]; [3],0**
same,Seroconversion of Anti-HBs,[1]; [4],0
same,Seroconversion of HBeAg,[1]; [4],0**
same,Seroconversion of HBsAg,[1]; [4],0**
same,Seroconversion of anti-HBe,[1]; [4],0**
same,Seroconversion of Anti-HBs,[1]; [5],0
same,Seroconversion of HBeAg,[1]; [5],2**
same,Seroconversion of HBsAg,[1]; [5],0**
same,Seroconversion of anti-HBe,[1]; [5],0**
same,Seroconversion of Anti-HBs,[1]; [6],1
same,Seroconversion of HBeAg,[1]; [6],4**
same,Seroconversion of HBsAg,[1]; [6],1**
same,Seroconversion of anti-HBe,[1]; [6],4**
same,Seroconversion of Anti-HBs 24W,[1]; [7],1**
same,Seroconversion of HBeAg 24W,[1]; [7],4**
same,Seroconversion of HBsAg 24W,[1]; [7],1**
same,Seroconversion of anti-HBe 24W,[1]; [7],4**
same,Seroconversion of Anti-HBs 48W,[1]; [8],0**
same,Seroconversion of HBeAg 48W,[1]; [8],0**
same,Seroconversion of HBsAg 48W,[1]; [8],0**
same,Seroconversion of anti-HBe 48W,[1]; [8],0**
same,patients relapsed to positive for HBV DNA,"[1]; of the 38 patients HBV DNA negative during treatment, week 48 after treatment termination",12
same,overall HBV DNA seroconversion rate,[1]; week 48 after treatment termination,61.9%
same,"patients showing adverse effects (anorexia, abdominal discomfort, fluctuating ALT levels)",[2],8
same,patients with normal ALT,ALT; after 4 weeks of treatment,66.6%
same,patients with normal ALT,ALT; [3],28**

# — patent US6855346B2, “Pharmaceutical composition having prophylactic effects on lamivudine-related disease relapse and drug resistance and methods of using the same” (priority 2001, dated 2005)
